Results: patent publication US7063946B2, “Methods, reagents, kits and apparatus for protein function analysis” (Meso Scale Technologies, LLC., priority 2001, dated 2006)

Legend:
Experiment in all cases: Kinase inhibitor profiling, autophosphorylation
Format in all cases: biochemical
[1] = target: T1, Fgfr4 (Mus musculus, UniProt Q03142)
T1 construct: specificity data for proteins generated from a library of eighteen full-length clones; biotin on random lysines (biotin-Lys-tRNA); host or cells: rabbit reticulocyte lysate, coupled transcription/translation (TnT, Promega)

[2] = target: T2, Tek (Mus musculus, UniProt Q02858)
T2 construct: specificity data for proteins generated from a library of eighteen full-length clones; host or cells: rabbit reticulocyte lysate, TnT coupled in vitro transcription/translation (cell-free)

[3] = target: T3, PTK2B (Homo sapiens, UniProt Q14289)
T3 construct: specificity data for proteins generated from a library of eighteen full-length clones; host or cells: rabbit reticulocyte lysate, TnT coupled in vitro transcription/translation (cell-free)

[4] = target: T4, EphB4 (Mus musculus, UniProt P54761)
T4 construct: specificity data for proteins generated from a library of eighteen full-length clones; host or cells: rabbit reticulocyte lysate, TnT coupled in vitro transcription/translation (cell-free)
T4 sequence (P54761 16-987): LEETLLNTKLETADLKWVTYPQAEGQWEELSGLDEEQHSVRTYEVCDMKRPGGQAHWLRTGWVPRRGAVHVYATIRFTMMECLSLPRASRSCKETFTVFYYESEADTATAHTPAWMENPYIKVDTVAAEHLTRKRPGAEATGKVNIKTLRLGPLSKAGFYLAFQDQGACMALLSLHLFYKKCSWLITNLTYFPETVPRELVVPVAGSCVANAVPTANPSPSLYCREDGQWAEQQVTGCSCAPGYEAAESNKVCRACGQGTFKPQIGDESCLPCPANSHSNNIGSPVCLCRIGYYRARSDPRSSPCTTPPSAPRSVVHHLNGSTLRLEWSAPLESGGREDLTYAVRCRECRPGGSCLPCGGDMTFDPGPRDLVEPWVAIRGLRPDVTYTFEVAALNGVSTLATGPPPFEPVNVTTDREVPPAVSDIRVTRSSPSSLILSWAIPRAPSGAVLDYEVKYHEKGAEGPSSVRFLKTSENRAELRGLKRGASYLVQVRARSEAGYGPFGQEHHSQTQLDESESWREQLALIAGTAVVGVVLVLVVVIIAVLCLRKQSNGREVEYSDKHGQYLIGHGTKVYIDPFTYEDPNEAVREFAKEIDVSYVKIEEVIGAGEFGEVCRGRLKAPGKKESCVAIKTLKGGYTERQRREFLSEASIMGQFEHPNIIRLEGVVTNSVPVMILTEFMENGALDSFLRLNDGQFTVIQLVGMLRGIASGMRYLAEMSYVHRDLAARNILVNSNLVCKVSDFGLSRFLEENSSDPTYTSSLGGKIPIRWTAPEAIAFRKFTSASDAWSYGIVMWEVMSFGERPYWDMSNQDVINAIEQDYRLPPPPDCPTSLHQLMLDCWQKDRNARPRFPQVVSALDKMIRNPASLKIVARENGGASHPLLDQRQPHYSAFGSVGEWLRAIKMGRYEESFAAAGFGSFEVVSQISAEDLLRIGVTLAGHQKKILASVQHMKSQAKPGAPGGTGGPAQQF

T1 sequence (Q03142 17-799): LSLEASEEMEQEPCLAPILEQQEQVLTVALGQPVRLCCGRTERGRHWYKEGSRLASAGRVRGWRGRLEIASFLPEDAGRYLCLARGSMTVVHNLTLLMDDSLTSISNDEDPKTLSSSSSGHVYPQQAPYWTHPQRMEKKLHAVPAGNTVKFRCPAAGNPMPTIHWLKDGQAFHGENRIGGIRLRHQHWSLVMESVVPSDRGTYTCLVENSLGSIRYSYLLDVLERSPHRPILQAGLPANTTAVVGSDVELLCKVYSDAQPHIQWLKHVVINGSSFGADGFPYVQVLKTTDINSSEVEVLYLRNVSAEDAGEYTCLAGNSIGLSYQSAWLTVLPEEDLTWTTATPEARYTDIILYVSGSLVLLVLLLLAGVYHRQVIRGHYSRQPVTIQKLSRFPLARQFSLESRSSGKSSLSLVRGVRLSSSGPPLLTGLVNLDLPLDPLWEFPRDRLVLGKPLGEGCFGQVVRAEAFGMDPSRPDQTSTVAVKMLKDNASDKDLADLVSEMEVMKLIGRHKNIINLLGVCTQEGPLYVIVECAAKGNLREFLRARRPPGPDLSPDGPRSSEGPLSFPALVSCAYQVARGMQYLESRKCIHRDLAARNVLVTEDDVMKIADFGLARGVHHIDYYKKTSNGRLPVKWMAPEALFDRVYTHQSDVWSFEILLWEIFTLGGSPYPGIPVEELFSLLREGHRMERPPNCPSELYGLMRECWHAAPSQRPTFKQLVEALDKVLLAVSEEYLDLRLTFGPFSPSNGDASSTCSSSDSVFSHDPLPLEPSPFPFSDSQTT
T3 sequence (Q14289 whole entry): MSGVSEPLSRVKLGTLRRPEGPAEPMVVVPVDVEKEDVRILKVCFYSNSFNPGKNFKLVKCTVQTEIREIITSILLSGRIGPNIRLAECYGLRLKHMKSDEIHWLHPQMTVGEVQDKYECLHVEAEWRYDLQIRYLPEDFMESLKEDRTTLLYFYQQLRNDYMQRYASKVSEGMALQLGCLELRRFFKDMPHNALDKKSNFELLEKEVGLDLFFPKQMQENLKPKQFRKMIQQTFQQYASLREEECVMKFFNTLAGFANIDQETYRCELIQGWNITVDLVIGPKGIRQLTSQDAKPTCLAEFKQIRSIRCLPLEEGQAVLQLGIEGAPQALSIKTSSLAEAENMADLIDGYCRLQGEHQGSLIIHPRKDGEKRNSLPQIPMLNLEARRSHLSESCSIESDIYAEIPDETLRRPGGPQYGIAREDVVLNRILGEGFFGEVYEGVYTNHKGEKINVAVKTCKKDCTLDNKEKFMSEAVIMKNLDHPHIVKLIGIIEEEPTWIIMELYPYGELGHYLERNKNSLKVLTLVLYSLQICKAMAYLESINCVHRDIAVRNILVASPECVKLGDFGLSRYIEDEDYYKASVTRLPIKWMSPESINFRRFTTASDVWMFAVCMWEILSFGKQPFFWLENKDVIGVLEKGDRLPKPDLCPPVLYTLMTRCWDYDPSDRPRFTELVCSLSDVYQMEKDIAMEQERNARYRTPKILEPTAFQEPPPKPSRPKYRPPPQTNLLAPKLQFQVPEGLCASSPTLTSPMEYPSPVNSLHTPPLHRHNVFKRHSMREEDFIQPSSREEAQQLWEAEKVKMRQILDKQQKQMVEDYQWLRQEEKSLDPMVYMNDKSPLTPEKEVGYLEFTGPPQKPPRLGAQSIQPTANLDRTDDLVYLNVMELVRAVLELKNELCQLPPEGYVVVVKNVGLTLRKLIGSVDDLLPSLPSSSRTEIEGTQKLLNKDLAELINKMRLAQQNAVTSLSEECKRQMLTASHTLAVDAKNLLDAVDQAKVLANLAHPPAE
T2 sequence (Q02858 23-1122): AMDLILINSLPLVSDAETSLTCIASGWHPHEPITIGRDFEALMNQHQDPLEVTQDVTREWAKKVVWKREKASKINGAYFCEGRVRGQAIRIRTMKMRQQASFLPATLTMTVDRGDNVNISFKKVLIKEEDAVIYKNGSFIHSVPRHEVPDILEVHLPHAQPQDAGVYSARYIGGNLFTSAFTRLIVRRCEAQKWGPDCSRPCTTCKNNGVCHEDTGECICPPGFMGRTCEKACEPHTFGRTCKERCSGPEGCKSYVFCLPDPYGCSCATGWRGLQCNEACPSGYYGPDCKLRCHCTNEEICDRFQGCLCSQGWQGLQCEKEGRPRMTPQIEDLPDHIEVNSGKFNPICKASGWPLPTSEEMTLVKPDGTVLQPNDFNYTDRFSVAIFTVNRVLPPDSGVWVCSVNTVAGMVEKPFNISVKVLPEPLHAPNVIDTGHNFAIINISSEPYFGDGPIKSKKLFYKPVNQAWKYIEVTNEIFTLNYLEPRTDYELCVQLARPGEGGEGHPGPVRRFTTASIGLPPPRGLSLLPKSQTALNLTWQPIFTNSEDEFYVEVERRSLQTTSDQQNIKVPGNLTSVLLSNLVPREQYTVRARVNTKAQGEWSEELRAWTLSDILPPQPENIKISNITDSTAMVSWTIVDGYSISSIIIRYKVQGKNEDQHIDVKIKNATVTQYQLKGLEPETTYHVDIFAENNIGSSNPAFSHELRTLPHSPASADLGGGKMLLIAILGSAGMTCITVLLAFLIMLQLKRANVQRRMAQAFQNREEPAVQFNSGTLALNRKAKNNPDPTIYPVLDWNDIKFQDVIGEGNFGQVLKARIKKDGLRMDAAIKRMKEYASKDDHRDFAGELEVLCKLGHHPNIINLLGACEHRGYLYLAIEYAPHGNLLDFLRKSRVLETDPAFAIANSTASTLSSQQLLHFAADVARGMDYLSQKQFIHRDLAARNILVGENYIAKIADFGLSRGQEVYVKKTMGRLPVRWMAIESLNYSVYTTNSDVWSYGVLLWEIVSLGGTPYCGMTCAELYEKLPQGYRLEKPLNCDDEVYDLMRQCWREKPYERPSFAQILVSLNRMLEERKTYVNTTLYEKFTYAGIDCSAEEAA

| Compound | Inhibition specificity towards Autophosphorylation at 10X IC50, Fgfr4 [1] | Inhibition specificity towards Autophosphorylation at 10X IC50, Tek [2] | Inhibition specificity towards Autophosphorylation at 10X IC50, PTK2B [3] | Inhibition specificity towards Autophosphorylation at 10X IC50, Ephb4 [4] |
| --- | --- | --- | --- | --- |
| Cc1cc2ncc(-c3ccc(O)c(O)c3)nc2cc1C [AG-1433] | H (high inhibition (“H”=less than 25% of the activity remaining)) | H (high inhibition (“H”=less than 25% of the activity remaining)) | H (high inhibition (“H”=less than 25% of the activity remaining)) | H (high inhibition (“H”=less than 25% of the activity remaining)) |
| COc1c(C=O)c(O)cc2c1C(=O)c1ccccc1C2=O [Damnacanthal] | H (high inhibition (“H”=less than 25% of the activity remaining)) | H (high inhibition (“H”=less than 25% of the activity remaining)) | M (medium inhibition (“M”=between 25 to 50% of the activity remaining)) | H (high inhibition (“H”=less than 25% of the activity remaining)) |
| COC(=O)c1ccc(NCc2cc(O)ccc2O)cc1 [AG-957] | L (low inhibition (“L”=between 50–75% of the activity remaining)) | M (medium inhibition (“M”=between 25 to 50% of the activity remaining)) | L (low inhibition (“L”=between 50–75% of the activity remaining)) | L (low inhibition (“L”=between 50–75% of the activity remaining)) |
| CC(C)(C)c1cc(C=C(C#N)C#N)cc(Br)c1O [AG-1024] | L (low inhibition (“L”=between 50–75% of the activity remaining)) | M (medium inhibition (“M”=between 25 to 50% of the activity remaining)) |  |  |
| COc1cc2ncnc(Nc3ccc(Cl)cc3F)c2cc1OC [VEGFR inhibitor] |  |  |  | L (low inhibition (“L”=between 50–75% of the activity remaining)) |
| Erbstatin analog |  | L (low inhibition (“L”=between 50–75% of the activity remaining)) | L (low inhibition (“L”=between 50–75% of the activity remaining)) | L (low inhibition (“L”=between 50–75% of the activity remaining)) |
